Where two headings read alike, the source gives them in different places.

One series has as its target dopamine receptors (Rattus norvegicus, UniProt P61169). Nature of the series: [3H] haloperidol binding assay (HRBA). Also on record: species or system Long-Evans hooded rats. The settings on record: displacement of [3H] haloperidol (0.6 nM), rat striatal membranes, pH 7.6, 25° C., 40 minutes. On the procedure:
[^3 H] Haloperidol Binding Assay. The relative affinities of compounds for dopamine receptors were evaluated on the basis of their ability to displace [^3 H] haloperidol from striatal membranes prepared from Long-Evans hooded rats. Rats were decapitated; the brains were removed, and the corpus striata were dissected. The corpus striata were homogenized in 40 volumes of […] Tris buffer (pH 7.6) and centrifuged. Pellets were rehomogenized in 50 volumes of the same buffer and used for the binding assay. Incubations were carried out in 10 ml of […] Tris-HCl buffer (pH 7.6) containing 2 mg/ml of original wet tissue weight of homogenate, 100 μl of test agent or solvent, and 0.6 nM of [^3 H] haloperidol. Nonspecific binding was determined in the presence of 0.1 μM (+)-butaclamol. Samples were incubated in reciprocating water bath at 25° C. for 40 minutes. Incubation was terminated by rapid filtration under reduced pressure through glass fiber filters (Whatman GF/B). The filters were rinsed three times with 10 ml of Tris-HCl buffer. The filters were placed in 10 ml of scintillation coctail (Beckman Ready-Solv HP) and shaken for one hour. Radioactivity retained on the filter was determined by liquid scintillation spectrophotometry. Compounds were initially evaluated at 10 nM. IC50 s when determined were calculated from a nonlinear computer curve, fit on the data from four or more concentrations, each done in triplicate.
(In general: Loss of bound radioactivity is the signal in a displacement assay; it reports binding, not function.)

In the next series the test system is Swiss-Webster male mice. Nature of the series: Mouse Activity and Screen Test Procedure (MAST). The class given is in vivo. The settings on record: ip, 1 h, intraperitoneal, one hour prior to testing, active = rating A at 100 mg/kg or less, read-out: Dose at which an overall dose rating of A was obtained. The source says:
The compounds of the present invention are new chemical substances which are useful as pharmaceutical agents for the treatment of psychoses such as, for example, schizophrenia. The antipsychotic activity of representative compounds of the invention was established by the Mouse Activity and Screen Test Procedure (MAST) described below:
ANIMALS: Nine unfasted Swiss-Webster male mice (Buckberg Labs) weighing 20-30 g are equally divided into three groups for each drug dose to be tested. That is, data for each dose level was generated by three separate groups of three mice each.
DRUGS: A minimum of three dose levels (10, 30, and 100 mg/kg) are tested for each drug. Treatments are administered intraperitoneally one hour prior to testing. All dosages are calculated as parent compound and given in volumes of […]. Compounds are dissolved or suspended in 0.2% Methocel. Control animals are injected with Methocel.
TESTING: A two-part testing procedure is started one hour postinjection. First, the screen test is performed (see Pharmac Biochem Behav 6, 351-353, 1977). Briefly, this test consists of placing mice on individual wire screens which are then rotated 180° at the start of a 60-second observation period. The number of mice falling off the inverted screen is recorded.
Immediately following the screen test, the final phase of testing is initiated by placing each group of three mice in one actophotometer (Life Sciences, 22, 1067-1076, 1978). The actophotometer consists of a cylindrical chamber whose center is occupied by another cylinder which contains the illumination for six photocells located on the perimeter of the chamber. Six light-beam interruptions equal one count. Locomotor activity is recorded by computer at ten-minute intervals for 60 minutes.
DATA: The data obtained from the screen test are expressed as percent of mice falling off the screen. Data derived from locomotor activity of drug-treated mice are compared to the activity of vehicle-treated animals and are expressed as percent inhibition of spontaneous locomotion. All percentages reported for inhibition of locomotion are based upon data accumulated for one hour. Both phases of testing are graded: A=60-100%; C=31-59%; and N=0-30%. An overall dose rating is obtained by the following criteria. […]
______________________________________
Inhibition of Screen Test Dose
Locomotion rating with Failure Rating
Utilizing this procedure, an overall dose rating of A was obtained for the noted compounds at the indicated dose as reported in Table 1.

For series [1], the system named is mature male hooded rats (Long-Evans strain). The series can be described thus: animal model of anxiety based on the Geller-Seifter conflict test. As to conditions: for Total Punished Responses, Test: four rats. The class given is in vivo. The source says:
The compounds of the present invention are new chemical substances which are also useful as pharmaceutical agents for the treatment of anxiety, i.e., anxiolytic agents. The antianxiety activity of a representative compound showing such activity for the compounds of the Formula I of the present invention is established by the use of an animal model of anxiety based on the Geller-Seifter conflict test described in Psychopharmacologia 1:482 (1960). Particularly the test follows initial shaping of response, an experimental conflict is induced, with animals trained until stable performance is established. Each animal serves as his own control. A description of the test is as follows:
Subjects: Mature male hooded rats (Long-Evans strain) 300-350 g body weight.
Apparatus: The experimental chamber consists of an inner test compartment with a lever mounted in one wall, a grid floor, an automatic feeding device, and a speaker. This chamber is enclosed by a sound insulated cubicle. Shock is provided by a LVE Model 1531 Constant Current SHocker. White (masking) noise is supplied by a LVE Model 1524 Noise Generator. A tone is produced by a LVE Model 1664 4.5 KC Tone Generator. All events and recordings are automatic and are programmed with appropriate electric timers and relay devices.
Procedure: Variable interval (VI)=two-minute; trial periods=four; shock=0.6 to 0.8 ma; food reward=Borden's Sweetened Condensed Milk diluted two parts water to one part milk; animals are deprived to 70% of their free feeding weight and are 23 hours starved; session length=one hour and 12 minutes.
The conflict is induced in the following manner: hungry rats are conditioned to press a lever to obtain a food reward. Reinforcement is contingent upon a lever press and occurs at variable intervals on the average of once every two minutes--VI two-minute (See Ferster; C. B., and Skinner, B. F., "In Schedules of Reinforcement, " Appleton-Century-Crofts,New York, 1957).
Spaced at regular intervals throughout the experimental session are four three-minute periods. During these trial periods a tone signals that every lever press will be food reinforced (CRF) and simultaneously punished by a painful electric foot shock.
In other words, food-deprived rats are trained to depress a lever in order to obtain food (sweetened condensed milk). Normally, the rats perform on a variable interval (VI) schedule on which a lever press results in food delivery on the average of once every two minutes; the time between successive periods of food availability is varied continuously such that animals respond at low but steady rates to obtain occasional access to food. After animals perform for 12 minutes on this schedule the house lights are extinguished and two small stimulus lights are illuminated, signaling the availability of food for each depression of the lever during a three minute trial period. During the trial, each depression of the lever also results in the delivery of mild electric shock (0.8 ma, 0.25 second duration) delivered through the grid floor (punishment). Thus, an approach-avoidance conflict is established with associated anxiety: food is readily available for each response, but each respone is punished (see Miller, N. E., "Some Recent Studies of Conflict Behavior and Drugs," Am. Pharmacologist, 16: 12, 1961). The scheduled used in our test employed four successive trials, each preceded by a 12-minute period during which the food-reinforced VI was in effect.
During sessions in which no drug is administered, rats normally respond at steady rates on the VI component but emit very few responses during the punished trial period.
The total number of punished responses made by the four subjects in the pretest and test sessions for the noted compound are as follows.
The pretest responses are cummulative responses emitted during the three minute tests from a previous nondrug session. […]

Sequence of dopamine receptors (P61169 whole entry): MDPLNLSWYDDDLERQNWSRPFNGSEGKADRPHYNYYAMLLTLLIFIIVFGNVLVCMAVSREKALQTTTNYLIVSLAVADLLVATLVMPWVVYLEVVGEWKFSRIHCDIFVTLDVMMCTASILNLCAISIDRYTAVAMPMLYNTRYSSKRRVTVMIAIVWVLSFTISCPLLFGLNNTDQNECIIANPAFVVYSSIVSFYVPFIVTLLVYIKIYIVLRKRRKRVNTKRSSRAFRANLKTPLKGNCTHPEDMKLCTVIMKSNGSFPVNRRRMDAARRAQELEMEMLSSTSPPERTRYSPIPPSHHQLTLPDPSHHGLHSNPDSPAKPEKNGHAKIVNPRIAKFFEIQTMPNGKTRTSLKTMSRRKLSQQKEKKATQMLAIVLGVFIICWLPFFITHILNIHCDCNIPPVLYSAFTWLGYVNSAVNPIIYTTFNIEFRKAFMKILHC

What is called IC50 is the midpoint of a concentration-inhibition curve. On to `O=c1ccc2ccc(OCCCN3CCN(c4ncccn4)CC3)cc2o1` [drawing 22], for which the IC50 on dopamine receptors (read-out: IC50) worked out at 930 nM.

For `O=c1ccc2ccc(OCCCN3CCN(c4ncccn4)CC3)cc2o1` [drawing 17], in the series with Swiss-Webster male mice, the minimal effective dose is 3 mg/kg.

As for `O=c1ccc2ccc(OCCCN3CCN(c4ccccc4)CC3)cc2o1` [drawing 15], the minimal effective dose in the series on Swiss-Webster male mice came to 3 mg/kg.

On dopamine receptors, `Cc1cc(=O)oc2cc(OCCCN3CCN(c4ccccc4)CC3)ccc12` [drawing 21] displayed an IC50 of 50 nM.

For the molecule `Cc1cc(=O)oc2cc(OCCCN3CCN(c4ccccc4)CC3)ccc12` [drawing 16], in the series on Swiss-Webster male mice, the minimal effective dose was found to be 1 mg/kg.

On to `CSc1ccc2c(c1)N(CCC1CCCCN1C)c1ccccc1S2` (stereo not drawn) [Thioridazine, reference compound], for which the minimal effective dose with Swiss-Webster male mice came to 10 mg/kg.

As to `O=c1ccc2ccc(OCCCN3CC=C(c4ccccc4)CC3)cc2o1` [drawing 23], the IC50 on dopamine receptors was found to be 16 nM.

For the molecule `O=c1ccc2ccc(OCCCN3CCN(c4ncccn4)CC3)cc2o1` [7-[3-[4-(2-pyrimidinyl)-1-piperazinyl]propoxy]-2H-1-benzopyran-2-one], the “responding during trial periods” value in series [1] (27.5 mg/kg PO (no increase)) was “not at 27.5 mg/kg PO”; in series [1] (55 and 80 mg/kg PO) it was “increased responding during trial periods”. Besides, the “Total Punished Responses, Test” value was 44 in series [1] (27.5 mg/kg PO, Pretest (nondrug session) 39); 147 in series [1] (55 mg/kg PO, Pretest (nondrug session) 78); 77 in series [1] (80 mg/kg PO, Pretest (nondrug session) 23). The “rats with increases in punished responding” value in series [1] (80 mg/kg) was “four of four rats”; in series [1] (55), “three of four rats”. For the same molecule, the gross sedation entry in series [1] (55 and 80 mg/kg PO) was “notable absence of gross sedation”. Also, the “responding during the VI component” value in series [1] (55 and 80 mg/kg PO, unpunished responding) is listed as “not accompanied by decreased responding during the VI component”.

With `O=c1ccc2ccc(OCCCN3CC=C(c4ccccc4)CC3)cc2o1` [drawing 18], the minimal effective dose in the series on Swiss-Webster male mice was found to be 1 mg/kg.

In the case of `O=c1ccc2ccc(OCCCN3CCN(c4ccccc4)CC3)cc2o1` [drawing 20], on dopamine receptors (read-out: IC50), the half-inhibitory concentration (IC50) turned out to be 15 nM.

These data come from patent US4701456A, “Aminoalkoxybenzopyranones as antipsychotic and anxiolytic agents” (Warner-Lambert Company, priority 1985, dated 1987).
